This is an account of results in patent US7704995B2 (Exelixis, Inc., priority 2003, dated 2010).

For orientation: pIC50 means the IC50 on a negative log10 scale, so that one unit is a factor of ten.

The target in the assay is T1, Chk1 (Homo sapiens, UniProt O14757).
T1 construct: purchased Upstate Biotechnology
T1 sequence (O14757 1-476): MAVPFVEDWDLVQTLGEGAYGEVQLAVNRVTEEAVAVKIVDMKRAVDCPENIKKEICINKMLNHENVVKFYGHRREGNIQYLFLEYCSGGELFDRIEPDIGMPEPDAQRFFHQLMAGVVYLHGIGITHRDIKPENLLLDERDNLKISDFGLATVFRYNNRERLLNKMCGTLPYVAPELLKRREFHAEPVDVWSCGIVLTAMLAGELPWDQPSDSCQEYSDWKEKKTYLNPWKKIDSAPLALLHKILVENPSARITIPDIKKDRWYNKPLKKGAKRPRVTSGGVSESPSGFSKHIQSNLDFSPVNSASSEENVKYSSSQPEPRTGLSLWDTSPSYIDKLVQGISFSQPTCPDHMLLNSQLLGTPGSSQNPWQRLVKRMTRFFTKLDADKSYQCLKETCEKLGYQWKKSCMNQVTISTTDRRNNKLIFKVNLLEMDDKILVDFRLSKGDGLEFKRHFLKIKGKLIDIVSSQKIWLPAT
The experiment in a line: Chk1 kinase assay: incorporation of γ-33P ATP into immobilized myelin basic protein. The conditions noted are these: Table 11; Chk1 only; read-out: Chk1 IC50. The assay is classed as biochemical. Summed up: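 Enzyme activity is measured as γ-33P transfer from ATP onto immobilized MBP over 1 h at room temperature, with Chk1 at 10 nM/10 μM unlabeled ATP and Chk2 at 20 nM/30 μM unlabeled ATP. Compounds are tested in 1% DMSO.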

pIC50: −log10 of the molar value. Some results are limits rather than exact numbers.

With `CNC(=O)c1nc(-c2cccc(CN[C@H]3CCC[C@@H]3OCc3ccccc3)c2)cnc1N` [Example 499, 3-amino-N-methyl-6-{3-[({(1S,2S)-2-[(phenylmethyl)oxy]cyclopentyl}amino)methyl]phenyl}pyrazine-2-carboxamide], the pIC50 was 6.00 to 7.30.

For `CNC(=O)c1nc(-c2cccc(CNC3CCCC3)c2)cnc1N` [Example 500, 3-amino-6-{3-[(cyclopentylamino)methyl]phenyl}-N-methylpyrazine-2-carboxamide], the pIC50 was 6.00 to 7.30.

For the compound `CNC(=O)c1nc(-c2cccc(CNC3CCc4ccc(Br)cc43)c2)cnc1N` (stereo not shown) [Example 501, 3-amino-6-(3-{[(6-bromo-2,3-dihydro-1H-inden-1-yl)amino]methyl}phenyl)-N-methylpyrazine-2-carboxamide], the pIC50 is 6.00 to 7.30.

Consider `CNC(=O)c1nc(-c2cccc(CNC3CCc4cccc(F)c43)c2)cnc1N` (stereo not shown) [Example 502, 3-amino-6-(3-{[(7-fluoro-2,3-dihydro-1H-inden-1-yl)amino]methyl}phenyl)-N-methylpyrazine-2-carboxamide], for which the pIC50 is 6.00 to 7.30.

Consider `CNC(=O)c1nc(-c2cnc3ccccc3c2)cnc1N` [Example 503, 3-amino-N-methyl-6-quinolin-3-ylpyrazine-2-carboxamide], for which the pIC50 was 5.00 to 6.00.

Consider `CNC(=O)c1nc(-c2cccc(Cn3ccnc3)c2)cnc1N` [Example 504, 3-amino-6-[3-(1H-imidazol-1-ylmethyl)phenyl]-N-methylpyrazine-2-carboxamide], for which the negative logarithm of the IC50 (pIC50) is 6.00 to 7.30.

As to `CNC(=O)c1nc(-c2cccc(CNC3CCc4cc(OCCN5CCOCC5)ccc43)c2)cnc1N` (stereo not shown) [Example 505, 3-amino-N-methyl-6-{3-[({5-[(2-morpholin-4-ylethyl)oxy]-2,3-dihydro-1H-inden-1-yl}amino)methyl]phenyl}pyrazine-2-carboxamide], the pIC50 was 6.00 to 7.30.

As to `CNC(=O)c1nc(-c2cccc(CN[C@@H]3CCC[C@H]3OCc3ccccc3)c2)cnc1N` [Example 506, 3-amino-N-methyl-6-{3-[({(1R,2R)-2-[(phenylmethyl)oxy]cyclopentyl}amino)methyl]phenyl}pyrazine-2-carboxamide], the pIC50 was 6.00 to 7.30.

Consider `CNC(=O)c1nc(-c2cccc(CNC3COc4ccccc43)c2)cnc1N` (stereo not shown) [Example 507, 3-amino-6-{3-[(2,3-dihydro-1-benzofuran-3-ylamino)methyl]phenyl}-N-methylpyrazine-2-carboxamide], for which the pIC50 is 6.00 to 7.30.

Regarding `CNC(=O)c1nc(-c2cccc(CNC3CCc4cc(OCC#N)ccc43)c2)cnc1N` (stereo not shown) [Example 508, 3-amino-6-{3-[({5-[(cyanomethyl)oxy]-2,3-dihydro-1H-inden-1-yl}amino)methyl]phenyl}-N-methylpyrazine-2-carboxamide], the pIC50 was 6.00 to 7.30.

With `CNC(=O)c1cc(-c2cccc(CN[C@H]3CCc4ccccc43)c2)cnc1N` [Example 509, 2-amino-5-(3-{[(1S)-2,3-dihydro-1H-inden-1-ylamino]methyl}phenyl)-N-methylpyridine-3-carboxamide], the pIC50 is 6.00 to 7.30.

Turning to `CNC(=O)c1nc(-c2cccc(CNC3CCc4cc(-c5ccc(C)cc5)ccc43)c2)cnc1N` (stereo not shown) [Example 510, 3-amino-N-methyl-6-[3-({[5-(4-methylphenyl)-2,3-dihydro-1H-inden-1-yl]amino}methyl)phenyl]pyrazine-2-carboxamide], the pIC50 was 6.00 to 7.30.

Turning to `CNC(=O)c1nc(-c2cccc(CNC(CN(C)C)c3ccccc3)c2)cnc1N` (stereo not shown) [Example 511, 3-amino-6-[3-({[2-(dimethylamino)-1-phenylethyl]amino}methyl)phenyl]-N-methylpyrazine-2-carboxamide], the pIC50 was 6.00 to 7.30.

As to `CNC(=O)c1nc(-c2cccc(CNC3CCc4cc(-n5cncn5)ccc43)c2)cnc1N` (stereo not shown) [Example 512, 3-amino-N-methyl-6-[3-({[5-(1H-1,2,4-triazol-1-yl)-2,3-dihydro-1H-inden-1-yl]amino}methyl)phenyl]pyrazine-2-carboxamide], the pIC50 is 6.00 to 7.30.

In the case of `CNC(=O)c1nc(-c2cccc(CNC3CCc4cc(O)ccc43)c2)cnc1N` (stereo not shown) [Example 513, 3-amino-6-(3-{[(5-hydroxy-2,3-dihydro-1H-inden-1-yl)amino]methyl}phenyl)-N-methylpyrazine-2-carboxamide], the pIC50 is 6.00 to 7.30.

For `CNC(=O)c1nc(-c2cccc(CNC3CCc4c(OCCN5CCOCC5)cccc43)c2)cnc1N` (stereo not shown) [Example 514, 3-amino-N-methyl-6-{3-[({4-[(2-morpholin-4-ylethyl)oxy]-2,3-dihydro-1H-inden-1-yl}amino)methyl]phenyl}pyrazine-2-carboxamide], the pIC50 is 6.00 to 7.30.

For the compound `CNC(=O)c1nc(-c2cccc(CNC3CCc4c(O)cccc43)c2)cnc1N` (stereo not shown) [Example 515, 3-amino-6-(3-{[(4-hydroxy-2,3-dihydro-1H-inden-1-yl)amino]methyl}phenyl)-N-methylpyrazine-2-carboxamide], the pIC50 was over 7.30.

Regarding `CNC(=O)c1nc(-c2ccc3ccnc(NCc4ccccc4)c3c2)cnc1N` [Example 516, 3-amino-N-methyl-6-{1-[(phenylmethyl)amino]isoquinolin-7-yl}pyrazine-2-carboxamide], the pIC50 was 5.00 to 6.00.

With `CNC(=O)c1nc(-c2cccc(CNC(CN3CCOCC3)c3ccccc3)c2)cnc1N` (stereo not shown) [Example 517, 3-amino-N-methyl-6-(3-{[(2-morpholin-4-yl-1-phenylethyl)amino]methyl}phenyl)pyrazine-2-carboxamide], the pIC50 is 5.00 to 6.00.

For `CNC(=O)c1nc(-c2cccc(CNC(CN3CCCC3)c3ccccc3)c2)cnc1N` (stereo not shown) [Example 518, 3-amino-N-methyl-6-(3-{[(1-phenyl-2-pyrrolidin-1-ylethyl)amino]methyl}phenyl)pyrazine-2-carboxamide], the pIC50 was 6.00 to 7.30.

As to `CNC(=O)c1cc(-c2cccc(CNC3CCc4ccc(Br)cc43)c2)cnc1N` (stereo not shown) [Example 519, 2-amino-5-(3-{[(6-bromo-2,3-dihydro-1H-inden-1-yl)amino]methyl}phenyl)-N-methylpyridine-3-carboxamide], the negative logarithm of the IC50 (pIC50) is 6.00 to 7.30.

For `CNC(=O)c1cc(-c2cccc(CNC3CCc4c(F)cc(F)cc43)c2)cnc1N` (stereo not shown) [Example 520, 2-amino-5-(3-{[(4,6-difluoro-2,3-dihydro-1H-inden-1-yl)amino]methyl}phenyl)-N-methylpyridine-3-carboxamide], the pIC50 was 6.00 to 7.30.

For `CNC(=O)c1cc(-c2cccc(CNC3CCc4c(F)ccc(Br)c43)c2)cnc1N` (stereo not shown) [Example 521, 2-amino-5-(3-{[(7-bromo-4-fluoro-2,3-dihydro-1H-inden-1-yl)amino]methyl}phenyl)-N-methylpyridine-3-carboxamide], the pIC50 was 5.00 to 6.00.

As for `CNC(=O)c1cc(-c2cccc(CNC3CCc4c(Cl)cccc43)c2)cnc1N` (stereo not shown) [Example 522, 2-amino-5-(3-{[(4-chloro-2,3-dihydro-1H-inden-1-yl)amino]methyl}phenyl)-N-methylpyridine-3-carboxamide], the pIC50 was 6.00 to 7.30.

On to `CNC(=O)c1cc(-c2cccc(CNC3CCc4cc(F)c(F)cc43)c2)cnc1N` (stereo not shown) [Example 523, 2-amino-5-(3-{[(5,6-difluoro-2,3-dihydro-1H-inden-1-yl)amino]methyl}phenyl)-N-methylpyridine-3-carboxamide], for which the pIC50 is 6.00 to 7.30.
